Measured values from patent US20020115611A1, “Methods for screening GABA-modulatory compounds for specified pharmacological activities” (priority 1999, published 2002).

How the values were obtained:
rats [1] = assay: step-down passive avoidance; assay type: in vivo; settings: rat, IV; cognitive enhancement (Table X)
Source text: (§1) A statistically significant effect in the spatial water maze, step-down passive avoidance, spontaneous locomotor activity, Porsolt swim test, or the elevated plus maze models is defined as p<0.05 using a valid parametric statistical test. Likewise, no statistically significant effect is defined in these models as p>0.05 using a valid parametric statistical test. No statistically significant effect for either of the seizure threshold models is defined as a decrease of less than 25% in the seizure threshold in the presence of a seizure inducing drug or a result that is not significant at the p<0.05 level.
In step-down passive avoidance a rat is placed on a platform located in the center of an electrified grid floor that is contained within a large (45 cm×45 cm×50 cm) white translucent Plexiglas® enclosure. The natural inclination of the rat is to step off the platform and investigate its surroundings. […] Each time the animal steps off the platform it receives a mild foot shock of 2 mAmps×6 sec. Following each shock the animal is removed from the box, placed in its cage for a one minute inter-trial interval, and then returned to the platform. The latency to step down on each trial, the number of trials taken to reach criterion during training and the retention latency are collected.
Testing is conducted approximately 24 hrs. after training. Drug-free animals are placed on the platform in the box in which they will have been trained and the latency to step down onto the grid floor is recorded for one trial as a measure of memory retention.

[2] = molecular target: GABAA receptors (Ro15-1788 / benzodiazepine site), rat cortex membranes; assay: Ro15-1788 competition binding assay, rat cortex membranes; settings: displacement of 3H Ro15-1788, rat cortex membranes
Procedure: Rat cortex membranes are prepared by homogenizing one or two previously frozen rat cortexes in 30 ml of 25 mM Tris Buffer, pH 7.4. The homogenate is centrifuged for 10 minutes at 500×g. The supernatant is then transferred to a clean centrifuge tube and the pellet discarded. The supernatant is spun for 20 minutes at 48,000×g. The supernatant from this spin is discarded and the pellet is resuspended in 30 ml of 25 mM Tris Buffer, pH 7.4 and centrifuged for an additional 10 minutes at 48,000×g. The supernatant from the final spin is discarded and the membrane pellet is resuspended in 100 mL Tris buffer per gram of cortex used.
The cortex membrane preparation is used to perform either percent inhibition or competition binding assays. In order to determine percent inhibition 300 μl of resuspended membranes are mixed with 200 μl ^3H labeled Ro15-1788 (final concentration 2.5 nM) and incubated for 1 hour on ice in the presence of 2 μl test compound in DMSO (final concentration 4 μM). Membranes are harvested onto untreated filtermats. The filtermats are dried and the ^3H Ro15-1788 signal is counted in a scintillation counter. Nonspecific binding is determined by displacement of ^3H Ro15-1788 with 10 μM Diazepam (RBI) or any other compound known to bind tightly at the benzodiazepine site.
Ki values are calculated according to the Cheng-Prussof equation.

[3] = molecular target: α2β3γ2 GABAA subtype receptor (Homo sapiens, UniProt P18507+P47869); assay: cell-based; settings: oocyte electrophysiology EC50 α2β3γ2, Xenopus laevis oocytes, human subunits, GABA at EC10
Source text: (§2) The in vitro efficacy and EC50 value of the test compound may be determined by measuring the chloride flux at the surface of a cell expressing the α,β, and γ subunits of the GABAA receptor in response to GABA by the two electrode voltage-clamp technique. While a variety of cells are suitable for use herein, the preferred cells used in this technique are Xenopus laevis oocytes that have been injected with non-polyadenylated CRNA coding for human derived α, βand γ GABAA subunits. The preferred form of the γ subunit is the normally expressed long form although an alternatively spliced form may be used.
(§3) Assays are carried out as described previously in White and Gurley, 1995 and White, et al., 1995. Xenopus laevis oocytes are enzymatically isolated and injected with non-polyadenylated cRNA for human derived α, β and γ GABAA subunits, respectively. In more preferred embodiments cRNA for the α1β2γ2, α2β3γ2, α3β3γ2, and α5β3γ2 subunit combinations are injected. Only one of these subunit combinations is injected per cell. For each subunit combination, sufficient message is injected to result in current amplitudes of >10 nA when 1 μM GABA is applied. Electrophysiological recordings are carried out using the two electrode voltage-clamp technique at a membrane holding potential of −70 mV.
(§4) Compounds are evaluated against a GABA concentration that evokes <10% (EC10) of the maximal evocable GABA current. Each oocyte is exposed to increasing concentrations of compound in order to evaluate a concentration/effect relationship.
(§5) Specificity of a compound for the Ro15-1788 site is determined following completion of the concentration/effect curve. After washing the oocyte sufficiently to remove previously applied compound, the oocyte is exposed to GABA and 1 μM Ro15-1788, followed by exposure to GABA, 1 μM Ro15-1788, and compound. Percent change due to addition of compound is calculated as described above. Any percent change observed in the presence of Ro15-1788 is subtracted from the percent changes in current amplitude observed in the absence of 1 μM Ro15-1788. These net values are used for the calculation of average activity and EC50 values.
(§6) To evaluate average activity and EC50 values, the concentration/effect data are averaged across cells and fit to the logistic equation. Average values are reported as mean±standard error.

[4] = molecular target: α1β2γ2 GABAA subtype receptor (Homo sapiens, UniProt P14867+P18507); assay: cell-based; settings: human subunits, GABA at EC10
Source text: as §2, §3, §4, §5, §6

[5] = molecular target: α3β3γ2 GABAA subtype receptor (Homo sapiens, UniProt P18507+P34903); assay: cell-based; settings: oocyte electrophysiology EC50 α3β3γ2, Xenopus laevis oocytes, human subunits, GABA at EC10
Source text: as §2, §3, §4, §5, §6

[6] = molecular target: α5β3γ2 GABAA subtype receptor (Homo sapiens, UniProt P18507+P31644); assay: cell-based; settings: human subunits, GABA at EC10
Source text: as §2, §3, §4, §5, §6

rats [7] = assay: bicuculline seizure threshold test; assay type: in vivo; settings: rat; proconvulsant activity; NS = no statistically significant effect versus vehicle
Source text: as §1
This test provides a measure of whether the test compound is proconvulsant by measuring whether the test compound produces any change in the dose of the seizure inducing drug, bicuculline, needed to elicit seizures in rats. […]
Adult male Sprague-Dawley rats (175-300 g) are weighed and placed in a rat restrainer. […] Patency of catheter placement is tested by backflow of venous blood and ready infusion of less than 2 ml of saline solution. […]
Test compound is infused 5 minutes prior to the start of bicuculline infusion. […] The time elapsed from the start of bicuculline infusion to first myoclonic jerk (first head/neck twitch), the initiation of full myoclonus (writhing), and final forelimb extension is all recorded using a digital stopwatch. […]

[8] = Xenopus laevis oocytes, negative = inverse agonism

Sequence of α1β2γ2 GABAA subtype receptor (P14867 28-456): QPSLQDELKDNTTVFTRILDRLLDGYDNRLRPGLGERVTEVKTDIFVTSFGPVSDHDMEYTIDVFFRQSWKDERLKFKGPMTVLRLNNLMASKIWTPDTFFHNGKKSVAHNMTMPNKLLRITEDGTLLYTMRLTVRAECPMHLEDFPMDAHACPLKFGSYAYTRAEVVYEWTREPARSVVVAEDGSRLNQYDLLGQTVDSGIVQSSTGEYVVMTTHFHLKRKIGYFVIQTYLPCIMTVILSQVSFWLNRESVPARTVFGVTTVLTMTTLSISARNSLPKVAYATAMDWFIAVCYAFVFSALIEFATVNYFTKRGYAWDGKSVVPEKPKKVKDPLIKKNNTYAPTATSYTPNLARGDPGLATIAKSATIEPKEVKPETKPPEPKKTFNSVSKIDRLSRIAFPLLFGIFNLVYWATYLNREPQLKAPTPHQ
Sequence of α1β2γ2 GABAA subtype receptor (P47870 25-512 partner limits assumed): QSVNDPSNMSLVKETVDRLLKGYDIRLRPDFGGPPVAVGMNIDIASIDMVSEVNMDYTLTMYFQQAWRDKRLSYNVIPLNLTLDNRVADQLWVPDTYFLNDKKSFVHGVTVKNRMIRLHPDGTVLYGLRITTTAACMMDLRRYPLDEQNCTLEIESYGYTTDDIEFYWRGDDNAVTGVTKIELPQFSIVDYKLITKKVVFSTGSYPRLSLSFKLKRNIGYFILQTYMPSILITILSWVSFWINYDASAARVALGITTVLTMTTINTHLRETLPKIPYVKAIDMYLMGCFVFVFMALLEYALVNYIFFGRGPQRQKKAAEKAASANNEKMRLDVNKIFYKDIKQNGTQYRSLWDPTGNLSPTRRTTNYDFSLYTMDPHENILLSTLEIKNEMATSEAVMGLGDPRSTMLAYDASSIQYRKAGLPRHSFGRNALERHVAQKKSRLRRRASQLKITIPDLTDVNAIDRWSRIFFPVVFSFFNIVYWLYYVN
Sequence of α1β2γ2 GABAA subtype receptor (P18507 40-475): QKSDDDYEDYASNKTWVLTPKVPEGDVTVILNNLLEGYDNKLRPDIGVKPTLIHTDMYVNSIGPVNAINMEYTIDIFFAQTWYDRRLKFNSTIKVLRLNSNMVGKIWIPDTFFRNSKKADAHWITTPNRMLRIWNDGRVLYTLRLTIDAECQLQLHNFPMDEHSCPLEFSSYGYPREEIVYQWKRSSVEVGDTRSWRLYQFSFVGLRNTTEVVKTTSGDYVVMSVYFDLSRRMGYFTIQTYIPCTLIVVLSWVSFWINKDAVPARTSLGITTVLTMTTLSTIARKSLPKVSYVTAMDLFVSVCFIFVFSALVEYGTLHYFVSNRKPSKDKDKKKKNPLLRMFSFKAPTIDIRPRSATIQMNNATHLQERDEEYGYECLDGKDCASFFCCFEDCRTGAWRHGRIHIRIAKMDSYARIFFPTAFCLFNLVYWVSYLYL
Sequence of α5β3γ2 GABAA subtype receptor (P31644 32-462): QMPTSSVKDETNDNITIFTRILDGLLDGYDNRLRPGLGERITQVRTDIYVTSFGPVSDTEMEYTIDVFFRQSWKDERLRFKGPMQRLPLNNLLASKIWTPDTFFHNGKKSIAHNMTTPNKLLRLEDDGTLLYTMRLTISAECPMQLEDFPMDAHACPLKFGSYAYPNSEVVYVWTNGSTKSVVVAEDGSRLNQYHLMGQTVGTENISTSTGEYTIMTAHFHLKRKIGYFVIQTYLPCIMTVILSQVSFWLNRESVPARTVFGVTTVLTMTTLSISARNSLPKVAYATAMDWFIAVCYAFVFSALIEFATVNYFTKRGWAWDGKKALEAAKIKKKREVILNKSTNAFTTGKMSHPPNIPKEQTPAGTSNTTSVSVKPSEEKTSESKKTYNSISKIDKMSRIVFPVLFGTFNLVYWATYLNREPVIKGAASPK
Sequence of α5β3γ2 GABAA subtype receptor (P28472 26-473 partner): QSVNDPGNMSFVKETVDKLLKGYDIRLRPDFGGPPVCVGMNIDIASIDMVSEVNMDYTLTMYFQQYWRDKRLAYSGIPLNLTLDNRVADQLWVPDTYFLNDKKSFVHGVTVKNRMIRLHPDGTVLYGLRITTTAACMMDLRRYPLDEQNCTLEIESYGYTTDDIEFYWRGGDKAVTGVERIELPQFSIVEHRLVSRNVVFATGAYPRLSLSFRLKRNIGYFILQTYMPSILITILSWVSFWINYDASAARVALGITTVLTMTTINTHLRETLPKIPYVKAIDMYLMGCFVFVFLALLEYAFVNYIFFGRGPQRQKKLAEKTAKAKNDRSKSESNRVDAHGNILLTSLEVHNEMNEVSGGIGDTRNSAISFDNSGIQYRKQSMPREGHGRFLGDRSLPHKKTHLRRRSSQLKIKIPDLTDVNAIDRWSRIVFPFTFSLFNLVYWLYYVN
Sequence of α5β3γ2 GABAA subtype receptor (P18507 40-475): as the sequence (P18507 40-475) above
Sequence of α2β3γ2 GABAA subtype receptor (P47869 29-451): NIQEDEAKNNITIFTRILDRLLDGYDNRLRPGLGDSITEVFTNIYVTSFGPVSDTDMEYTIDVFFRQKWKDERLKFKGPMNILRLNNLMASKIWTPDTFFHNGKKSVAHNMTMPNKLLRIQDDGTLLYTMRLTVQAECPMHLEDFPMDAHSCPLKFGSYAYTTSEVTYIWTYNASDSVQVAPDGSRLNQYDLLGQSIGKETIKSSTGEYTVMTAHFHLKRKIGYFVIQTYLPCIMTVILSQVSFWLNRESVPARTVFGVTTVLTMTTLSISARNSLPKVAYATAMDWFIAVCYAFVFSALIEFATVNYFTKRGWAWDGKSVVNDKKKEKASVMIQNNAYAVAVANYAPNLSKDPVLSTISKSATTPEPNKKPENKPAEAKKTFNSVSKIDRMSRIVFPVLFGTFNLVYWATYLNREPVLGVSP
Sequence of α2β3γ2 GABAA subtype receptor (P28472 26-473 partner): as the sequence (P28472 26-473 partner) above
Sequence of α2β3γ2 GABAA subtype receptor (P18507 40-475): as the sequence (P18507 40-475) above
Sequence of α3β3γ2 GABAA subtype receptor (P34903 29-492): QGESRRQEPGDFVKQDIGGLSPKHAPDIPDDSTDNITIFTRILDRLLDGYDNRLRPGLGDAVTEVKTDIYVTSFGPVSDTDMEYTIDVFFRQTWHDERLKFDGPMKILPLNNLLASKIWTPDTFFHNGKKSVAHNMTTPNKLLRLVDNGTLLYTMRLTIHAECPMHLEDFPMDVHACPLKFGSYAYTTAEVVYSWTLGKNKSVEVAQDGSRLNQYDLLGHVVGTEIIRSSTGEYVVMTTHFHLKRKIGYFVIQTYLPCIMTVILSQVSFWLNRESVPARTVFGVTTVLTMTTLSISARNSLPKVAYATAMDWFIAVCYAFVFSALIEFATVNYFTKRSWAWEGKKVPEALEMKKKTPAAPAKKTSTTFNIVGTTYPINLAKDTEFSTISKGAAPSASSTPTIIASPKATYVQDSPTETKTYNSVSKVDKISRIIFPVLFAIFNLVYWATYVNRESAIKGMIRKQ
Sequence of α3β3γ2 GABAA subtype receptor (P28472 26-473 partner): as the sequence (P28472 26-473 partner) above
Sequence of α3β3γ2 GABAA subtype receptor (P18507 40-475): as the sequence (P18507 40-475) above

SMILES: O=C1C2C=Nc3ccccc3C2=NN1c1ccccc1 (stereo not drawn) [CGS 8216, reference compound]
- cognitive model: step-down passive avoidance, minimal efficacious dose (rats [1]): 0.06 mg/kg
- Ki [2]: 0.2 nM
- EC50 [3]: 2 nM
- oocyte electrophysiology maximum potentiation α1β2γ2 [4, 8]: −26%
- EC50 ([4]; oocyte electrophysiology EC50 α1β2γ2, Xenopus laevis oocytes): 0.7 nM
- EC50 [5]: 2 nM
- oocyte electrophysiology maximum potentiation α5β3γ2 [6, 8]: −39%
- EC50 ([6]; oocyte electrophysiology EC50 α5β3γ2, Xenopus laevis oocytes): 1 nM
- bicuculline seizure threshold, mean percent decrease in seizure threshold over the dose range studied (rats [7]): 50%
